Measurements taken from patent publication US9593144B2, “FPR1 antagonist derivatives and use thereof” (CHANG GUNG UNIVERSITY, priority 2014, dated 2017).
Read-outs that look alike come from different tables or passages of the source. Square brackets hold non-standard residues; d marks the D form. Peptide text beside a SMILES is read from it. * marks the point of attachment. dPhe(4-Cl) = N[C@H](Cc1ccc(Cl)cc1)C(=O)O; Hydrocinnamoyl = O=C(CCc1ccccc1)*; PhAc = O=C(Cc1ccccc1)*; Bz = O=C(c1ccccc1)*

Assays:
human neutrophils [1] = test: cells; type: cell-based; conditions: mean ± SEM
Protocol: Degranulation of azurophilic granules was determined by elastase release as described above. Experiments were performed using MeO-Suc-[…]-nitroanilide as the elastase substrate. […] Results are expressed as the percentage of elastase release in the drug-free control group, DMSO. Tables 5 and 6 explore whether there is an anti-inflamatory effect in the dipeptide derivatives. Because ferricytochrome c cannot penetrate cell membranes, it reacts with superoxide anion extracellularly. Also, there are absorptive reactions at 550 nm, and differences among the absorptive reactions can be used to evaluate the influence on the release of superoxide anion. The elastase is released by degranulation as the neutrophil is activated. Tables 5 and 6 use the substrate, MeO-Suc-[…]-nitroanilide, with the specificity for reacting with the elastase so as to evaluate the influence of the candidate compound on the elastase release. Blood was taken from healthy human donors (20-32 years old) by venipuncture, following a protocol approved by the Institutional Review Board at Chang Gung Memorial Hospital. Neutrophils were isolated by a standard method of dextran sedimentation prior to centrifugation in a Ficoll Hypaque gradient and the hypotonic lysis of erythrocytes. […] The degranulation of azurophilic granules was determined by elastase release as described above. Experiments were performed using MeO-Suc-[…]-nitroanilide as the elastase substrate. Briefly, after supplementation with MeO-Suc-[…]-nitroanilide ([…] neutrophils (6×10^5 ml^-1) were equilibrated at 37° C. for 2 min and incubated with drugs for 5 min. […] The results are expressed as the percentage of elastase release in the drug-free control group.

human neutrophils [2] = test: cells; type: cell-based; conditions: mean ± SEM; remark: listed apart in the source
Text: Tables 5 and 6 explore whether there is an anti-inflamatory effect in the dipeptide derivatives. Because ferricytochrome c cannot penetrate cell membranes, it reacts with superoxide anion extracellularly. Also, there are absorptive reactions at 550 nm, and differences among the absorptive reactions can be used to evaluate the influence on the release of superoxide anion. The elastase is released by degranulation as the neutrophil is activated. Tables 5 and 6 use the substrate, MeO-Suc-Ala-Ala-Pro-Val-p-nitroanilide, with the specificity for reacting with the elastase so as to evaluate the influence of the candidate compound on the elastase release.
Blood was taken from healthy human donors (20-32 years old) by venipuncture, following a protocol approved by the Institutional Review Board at Chang Gung Memorial Hospital. Neutrophils were isolated by a standard method of dextran sedimentation prior to centrifugation in a Ficoll Hypaque gradient and the hypotonic lysis of erythrocytes.
The evaluation of O2.^− generation was based on the SOD-inhibitable reduction of ferricytochrome c. In brief, after supplementation with 0.5 mg ml^−1 ferricytochrome c and 1 mM Ca^2+, neutrophils were equilibrated at 37° C. for 2 min and incubated with drugs […].

[3] = Neutrophil, fMLP/CB, n = 3, Table 1, read-out: Anti-inflammation NE release (IC50)
[4] = Neutrophil, human neutrophils, fMLP/CB, n = 3, Table 1, read-out: Anti-inflammation O2•− generation (IC50)

| SMILES | IC50 (human neutrophils [1]; [3]) [µM] | melting point [°C] | IC50 (human neutrophils [2]; [4]) [µM] | other results |
| --- | --- | --- | --- | --- |
| COC(=O)[C@@H](Cc1ccccc1)NC(=O)[C@H](Cc1c[nH]c2ccccc12)NC(=O)c1ccc(Cl)cc1 [Compound 5, N—(N-4-Chlorobenzoyl-L-tryptophanyl)-D-phenylalanine methyl ester] | 10.4 ± 4.61 | 191 to 193 | > 30 | – |
| COC(=O)[C@@H](Cc1ccccc1)NC(=O)[C@H](Cc1c[nH]c2ccccc12)NC(=O)c1ccc(OC)cc1 [Compound 7, N—(N-4-Methoxylbenzoyl-L-tryptophanyl)-D-phenylalanine methyl ester] | > 30 | 151 to 153 | > 30 | – |
| COC(=O)[C@@H](Cc1ccccc1)NC(=O)[C@H](Cc1c[nH]c2ccccc12)NC(=O)c1ccc(C)cc1 [Compound 6, N—(N-4-Methylbenzoyl-L-tryptophanyl)-D-phenylalanine methyl ester] | 2.47 ± 0.25 | 169 to 171 | 1.88 ± 0.29 | IC50 (human neutrophils [1]; Neutrophil, WKYMVm, n = 4 or 8, Table 6, read-out: Elastase release WKYMVm IC50): 1.96 ± 0.11 µM; IC50 (human neutrophils [1]; Neutrophil, WKYMVm/CB, n = 3, Table 4, read-out: WKYMVm/CB NE release (IC50)): 1.96 ± 0.11 µM; IC50 (human neutrophils [1]; Neutrophil, fMLF, n = 4 or 8, Table 6, read-out: Elastase release fMLF IC50): 2.47 ± 0.25 µM; IC50 (human neutrophils [1]; Neutrophil, fMLF/CB, n = 3, Table 4, read-out: fMLF/CB NE release (IC50)): 2.47 ± 0.25 µM; IC50 (human neutrophils [2]; Neutrophil, WKYMVm, n = 4 or 8, Table 5, read-out: Superoxide anion WKYMVm IC50): 6.55 ± 0.59 µM; IC50 (human neutrophils [2]; Neutrophil, WKYMVm/CB, n = 3, Table 4, read-out: WKYMVm/CB O2•− generation (IC50)): 6.55 ± 0.59 µM; IC50 (human neutrophils [2]; Neutrophil, human neutrophils, fMLF/CB, n = 3, Table 4, read-out: fMLF/CB O2•− generation (IC50)): 1.88 ± 0.29 µM; IC50 (human neutrophils [2]; Neutrophil, human neutrophils, fMLF, n = 4 or 8, Table 5, read-out: Superoxide anion fMLF IC50): 1.88 ± 0.29 µM |
| COC(=O)[C@@H](Cc1ccccc1)NC(=O)[C@H](Cc1c[nH]c2ccccc12)NC(=O)c1ccc(F)cc1 [Compound 4, N—(N-4-Fluorobenzoyl-L-tryptophanyl)-D-phenylalanine methyl ester] | > 30 | 191 to 193 | > 30 | – |
| COC(=O)[C@@H](Cc1ccc(Cl)cc1)NC(=O)[C@H](Cc1c[nH]c2ccccc12)NC(=O)c1ccccc1 [Compound 21b, N—(N-Benzoyl-L-tryptophanyl)-para-chloro-D-phenylalanine methyl esters] (Bz-Trp-[dPhe(4-Cl)]-OMe) | – | – | – | IC50 (human neutrophils [1]; fMLP/CB, n = 3, Table 2, read-out: Anti-inflammation NE release (IC50)): 12.4 ± 3.53 µM; IC50 (human neutrophils [2]; human neutrophils, fMLP/CB, n = 3, Table 2, read-out: Anti-inflammation O2•− generation (IC50)): 5.26 ± 0.84 µM |

Now from value to compound, other results behind:

| IC50 (human neutrophils [1]; [3]) [µM] | melting point [°C] | IC50 (human neutrophils [2]; [4]) [µM] | SMILES | other results |
| --- | --- | --- | --- | --- |
| 12.5 ± 4.87 | 159 to 161 | 10.1 ± 3.05 | COC(=O)[C@@H](Cc1ccccc1)NC(=O)[C@H](Cc1c[nH]c2ccccc12)NC(=O)CCc1ccccc1 [Compound 9, N—(N-Phenylpropanoyl-L-tryptophanyl)-D-phenylalanine methyl ester] (Hydrocinnamoyl-Trp-[dF]-OMe) | – |
| 5.71 ± 0.39 | 182 to 184 | 10.2 ± 4.53 | COC(=O)[C@@H](Cc1ccccc1)NC(=O)[C@H](Cc1c[nH]c2ccccc12)NC(=O)Cc1ccccc1 [Compound 8, N—(N-Phenylacetyl-L-tryptophanyl)-D-phenylalanine methyl ester] (PhAc-Trp-[dF]-OMe) | – |
| – | 151 to 153 | – | O=C(N[C@@H](Cc1c[nH]c2ccccc12)C(=O)N[C@@H](CO)Cc1ccccc1)c1ccccc1 [Compound 13a, N—(N-Benzoyl-L-tryptophanyl)-D-phenylalaninol] | IC50 (human neutrophils [1]; Neutrophil, fMLP/CB, n = 3, Table 3, read-out: Anti-inflammation NE release (IC50)): > 30 µM; IC50 (human neutrophils [2]; Neutrophil, human neutrophils, fMLP/CB, n = 3, Table 3, read-out: Anti-inflammation O2•− generation (IC50)): > 30 µM |
| – | 120 to 122 | – | O=C(N[C@@H](Cc1c[nH]c2ccccc12)C(=O)N[C@@H](CO)Cc1ccccc1)c1ccccc1 [Compound 13b, N—(N-Benzoyl-L-tryptophanyl)-D-phenylalaninol] | IC50 (human neutrophils [1]; fMLP/CB, n = 3, Table 3, read-out: Anti-inflammation NE release (IC50)): > 30 µM; IC50 (human neutrophils [2]; human neutrophils, fMLP/CB, n = 3, Table 3, read-out: Anti-inflammation O2•− generation (IC50)): > 30 µM |
